# Reference: patent US8664220B2, “Polycyclic compounds as lysophosphatidic acid receptor antagonists” (Amira Pharmaceuticals, Inc., priority 2009, dated 2014)
# Biological target: T1, human LPA1 (Homo sapiens, UniProt Q92633)
# T1 construct: the full-length cDNA for human LPA1 was obtained by PCR of the reverse transcription reaction; expressed in transfected cells
# Test: LPA1 calcium flux assay
# Assay type: cell-based
# Details: human LPA1 expressing CHO cells, stimulated with 10 nM LPA; read-out: HLPA1 Ca Flux IC50
# Experimental: Establishment of a CHO Cell Line Stably Expressing Human LPA1
# A 1.1 kb cDNA encoding the human LPA1 receptor was cloned from human lung.
# Human lung RNA (Clontech Laboratories, Inc. USA) was reverse transcribed using the RETROscript kit (Ambion, Inc.) and the full-length cDNA for human LPA1 was obtained by PCR of the reverse transcription reaction. The nucleotide sequence of the cloned human LPA1 was determined by sequencing and confirmed to be identical to the published human LPA1 sequence (An et al. Biochem. Biophys. Res. Commun. 231:619 (1997). The cDNA was cloned into the pcDNA5/FRT expression plasmid and transfected in CHO cells using lipofectamine 2000 (Invitrogen Corp., USA). Clones stably expressing human LPA1 were selected using hygromycin and identified as cells that show Ca-influx in response to LPA.
# LPA1 and LPA3 Calcium Flux Assays
# Human LPA1 or LPA3 expressing CHO cells are seeded at 20,000-45,000 cells per well in a 96-well poly-D-lysine coated plate one or two days before the assay. Prior to the assay, the cells are washed once with PBS and then cultured in serum-free media overnight. On the day of the assay, a calcium indicator dye (Calcium 4, Molecular Devices) in assay buffer (HBSS with Ca^2+ and Mg^2+ and containing 20 mM Hepes and 0.3% fatty-acid free human serum albumin) is added to each well and incubation continued for 1 hour at 37° C. 10 μl of test compounds in 2.5% DMSO are added to the cells and incubation continued at room temperature for 30 minutes. Cells are the stimulated by the addition of 10 nM LPA and intracellular Ca^2+ measured using the Flexstation 3 (Molecular Devices). IC50s are determined using Graphpad prism analysis of drug titration curves.
# T1 sequence (Q92633 whole entry): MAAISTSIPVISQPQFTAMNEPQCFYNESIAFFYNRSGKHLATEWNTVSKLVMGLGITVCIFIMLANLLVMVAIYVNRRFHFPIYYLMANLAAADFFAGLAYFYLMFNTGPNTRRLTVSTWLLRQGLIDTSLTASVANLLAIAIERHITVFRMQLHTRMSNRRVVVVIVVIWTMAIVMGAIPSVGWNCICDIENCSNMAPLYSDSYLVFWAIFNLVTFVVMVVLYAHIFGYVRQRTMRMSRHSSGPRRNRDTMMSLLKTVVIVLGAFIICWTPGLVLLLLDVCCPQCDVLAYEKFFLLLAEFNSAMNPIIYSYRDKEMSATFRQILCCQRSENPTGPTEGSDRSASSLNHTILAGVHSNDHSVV
row,SMILES,IC50
1,"Cc1noc(-c2ccc(-c3ccc(C4(C(=O)O)CC4)cc3)cc2)c1C(O)c1cccc(-c2ccccc2)c1 (centres unmarked) [Compound 1-53, 1-{4′-[4-(Biphenyl-3-yl-hydroxy-methyl)-3-methyl-isoxazol-5-yl]-biphenyl-4-yl}-cyclopropanecarboxylic acid]",< 300 nM
2,"Cc1noc(-c2ccc(-c3ccc(C4(C(=O)O)CC4)cc3)cc2)c1C(O)c1ccc(OCc2ccccc2)cc1 (centres unmarked) [Compound 1-54, 1-(4′-{4-[(4-Benzyloxy-phenyl)-hydroxy-methyl]-3-methyl-isoxazol-5-yl}-biphenyl-4-yl)-cyclopropanecarboxylic acid]",1000 to 50000 nM
3,"Cc1noc(-c2ccc(-c3ccc(C4(C(=O)O)CC4)cc3)cc2)c1C(O)c1cn(C(C)c2ccccc2)nn1 (centres unmarked) [Compound 1-55, 1-[4′-(4-{Hydroxy-[1-(1-phenyl-ethyl)-1H-[1,2,3]triazol-4-yl]-methyl}-3-methyl-isoxazol-5-yl)-biphenyl-4-yl]-cyclopropanecarboxylic acid]",< 300 nM
4,"Cc1noc(-c2ccc(-c3ccc(C4(C(=O)O)CC4)cc3)cc2)c1C(O)c1cn(Cc2ccccc2C(F)(F)F)nn1 (centres unmarked) [Compound 1-56, 1-[4′-(4-{Hydroxy-[1-(2-trifluoromethyl-benzyl)-1H-[1,2,3]triazol-4-yl]-methyl}-3-methyl-isoxazol-5-yl)-biphenyl-4-yl]-cyclopropanecarboxylic acid]",1000 to 50000 nM
5,"Cc1noc(-c2ccc(-c3ccc(C4(C(=O)O)CC4)cc3)cc2)c1C(O)c1cn(Cc2cccc(Cl)c2)nn1 (centres unmarked) [Compound 1-57, 1-[4′-(4-{[1-(3-Chloro-benzyl)-1H-[1,2,3]triazol-4-yl]-hydroxy-methyl}-3-methyl-isoxazol-5-yl)-biphenyl-4-yl]-cyclopropanecarboxylic acid]",< 300 nM
6,"Cc1noc(-c2ccc(-c3ccc(C4(C(=O)O)CC4)cc3)cc2)c1C(O)c1cccc(Cc2ccccc2)c1 (centres unmarked) [Compound 1-58, 1-(4′-{4-[(3-Benzyl-phenyl)-hydroxy-methyl]-3-methyl-isoxazol-5-yl}-biphenyl-4-yl)-cyclopropanecarboxylic acid]",< 300 nM
7,"Cc1noc(-c2ccc(-c3ccc(C4(C(=O)O)CC4)cc3)cc2)c1C(O)c1cncc(Cc2ccccc2)c1 (centres unmarked) [Compound 1-59, 1-(4′-{4-[(5-Benzyl-pyridin-3-yl)-hydroxy-methyl]-3-methyl-isoxazol-5-yl}-biphenyl-4-yl)-cyclopropanecarboxylic acid]",< 300 nM
8,"Cc1noc(-c2ccc(-c3ccc(C4(CC(=O)O)CC4)cc3)cc2)c1C(O)c1nnc(Cc2ccccc2)o1 (centres unmarked) [Compound 1-60, [1-(4′-{4-[(5-Benzyl-[1,3,4]oxadiazol-2-yl)-hydroxy-methyl]-3-methyl-isoxazol-5-yl}-biphenyl-4-yl)-cyclopropyl]-acetic acid]",< 300 nM
9,"Cc1noc(-c2ccc(-c3ccc(C4(C(=O)O)CC4)cc3)cc2)c1C(O)c1cn(Cc2ccccc2Cl)nn1 (centres unmarked) [Compound 1-61, 1-[4′-(4-{[1-(2-Chloro-benzyl)-1H-[1,2,3]triazol-4-yl]-hydroxy-methyl}-3-methyl-isoxazol-5-yl)-biphenyl-4-yl]-cyclopropanecarboxylic acid]",< 300 nM
10,"Cc1noc(-c2ccc(-c3ccc(C4(C(=O)O)CC4)cc3)cc2)c1C(O)c1cn(Cc2ccc(Cl)cc2)nn1 (centres unmarked) [Compound 1-62, 1-[4′-(4-{[1-(4-Chloro-benzyl)-1H-[1,2,3]triazol-4-yl]-hydroxy-methyl}-3-methyl-isoxazol-5-yl)-biphenyl-4-yl]-cyclopropanecarboxylic acid]",< 300 nM
11,"Cc1noc(-c2ccc(-c3ccc(C4(C(=O)O)CC4)cc3)cc2)c1[C@@H](O)c1cn(Cc2ccccc2Cl)nn1 [Compound 1-63, 1-[4′-(4-{(R)-[1-(2-Chloro-benzyl)-1H-[1,2,3]triazol-4-yl]-hydroxy-methyl}-3-methyl-isoxazol-5-yl)-biphenyl-4-yl]-cyclopropanecarboxylic acid]",< 300 nM
